The source of these data is patent publication US20250034116A1, “1,4-DIHETEROCYCLIC SUBSTITUTED AROMATIC RING OR AROMATIC HETEROCYCLIC COMPOUND AND USE THEREOF” (BeBetter Med Inc., priority 2022, published 2025).

Data set [1] deals with CYP enzymes in human liver microsomes (HLM). As to the kind of experiment: Inhibition of 20-HETE production in human liver microsomes (HLM). Type of data set: biochemical. A digest of the protocol:
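Liver microsomes (human or mouse) or recombinant CYP4F2 or CYP4A11 in potassium phosphate buffer mixed with compound, then with 400 μM substrate solution (stock). After 10 min preincubation at 37 °C, reaction started with 6 mM NADPH solution (stock) and run 25 min at 37 °C. 20-HETE formation quantified by LC-MS/MS; IC50 from a four-parameter Hill fit, with percent inhibition also reported at 1000, 500 or 100 nM.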
(In general: Liver microsomes are vesicles of endoplasmic reticulum, rich in cytochrome P450 enzymes.)

Data set [2] deals with CYP enzymes in rat liver microsomes (RLM). Briefly: Inhibition of 20-HETE production in rat liver microsomes (RLM). Type of data set: biochemical. Summed up:
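Test compounds were dissolved in DMSO, diluted in acetonitrile/DMSO (3:1), and 2 μl was mixed with 100 μl potassium phosphate buffer containing rat liver microsomes in a 96-well plate. Duplicate 30 μl aliquots received 15 μl of 400 μM substrate, were preheated at 37° C. for 10 minutes, then started with 15 μl of 6 mM NADPH for 25 minutes. LC-MS/MS measured 20-HETE formation.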

Data set [3] concerns the target recombinant CYP4F2 (rCYP4F2) (Homo sapiens (Human), UniProt P78329). Briefly: Inhibition of 20-HETE production by recombinant CYP4F2. Type of data set: biochemical. Conditions: read-out: rCYP4F2 (% inh @ 100 nM). As for the experimental part:
(§1) Experimental principle: The inhibitory activity of 20-HETE production is evaluated by testing the inhibitory effects of the compound on human liver microsomes (HLM), rat liver microsomes (RLM), mouse liver microsomes (MLM), or […] CYP4 subtype enzymes (CYP4F2). This assay employs HLM, RLM, or MLM along with recombinant CYP4F2 (rCYP4F2) and recombinant CYP4A11 (rCYP4A11), which are […] CYP4 subtype enzymes, to detect the effects of the test compound at different concentrations on the metabolic rate of enzyme-specific substrates, to determine the inhibitory effects of the test compound on CYP enzymes in HLM, RLM, or MLM.
(§2) Experimental methods: Dissolve the test compound in DMSO, and subsequently dilute it with an acetonitrile and DMSO mixture (3:1). Add 2 μl of varying concentrations of the test compound and 100 μl of potassium phosphate buffer containing either liver microsomes or recombinant enzymes to a 96-well plate. After mixing well, transfer 30 μl to another well (in duplicate), add 15 μl of 400 μM substrate solution, and mix well again. Preheat at 37° C. for 10 minutes, and then add 15 μl of 6 mM NADPH and incubate at 37° C. for 25 minutes. After 25 minutes, add 160 μl of acetonitrile solution (containing 0.1 μg/ml internal standard) to stop the reaction. Mix well, centrifuge at 3500 g for 15 minutes, and then analyze the supernatant using LC-MS/MS.
(§3) Plot the compound concentration on the x-axis and the inhibition rate on the y-axis to draw the curve. Use GraphPad Prism 5 software to fit the curve and calculate the IC50. The formula is Y=Bottom+(Top−Bottom)/(1+10^((Log IC50−X)×HillSlope)). X represents the logarithmic concentration of the inhibitor, and Y represents the relative enzyme activity at a given inhibitor concentration (relative to the condition without the inhibitor).
(§4) Calculate the inhibition percentages at concentrations of 1000 nM, 500 nM, or 100 nM as well as the half-maximal inhibitory concentration (IC50) of the test compound from the above experiment.

The target in data set [4] is recombinant CYP4A11 (rCYP4A11) (Homo sapiens (Human), UniProt Q02928). Briefly: Inhibition of 20-HETE production by recombinant CYP4A11. Type of data set: biochemical. The following applies: read-out: rCYP4A11 (% inh @ 100 nM). The method, then:
as §1, §2, §3, §4

Data set [5] relates to CYP enzymes in mouse liver microsomes (MLM). Briefly: Inhibition of 20-HETE production in mouse liver microsomes (MLM). Type of data set: biochemical. As for the experimental part: as §1, §2, §3, §4
Data set [6] is described as follows: Pharmacokinetic (PK) experiment, oral administration in rats. Conditions: 20 mg/kg; for AUC(0-inf) / Cmax / Tmax / half-life / AUC(0-t): male, SD, rat, plasma; for AUC(0-t): read-out: AUC0-24. It counts as in vivo, Male SD rats. The method, then:
Male SD rats, weighing 180-250 grams, were fasted overnight before testing. The test compound was dissolved in 30% sulfobutylether-β-cyclodextrin and administered orally at a dose of 20 mg/kg. Blood was collected from the tail vein at 15 minutes, 30 minutes, and 1, 2, 4, 6, 8, and 24 hours after administration. Approximately 0.3 ml of blood was collected at each time point, placed in a centrifuge tube containing K2-EDTA, and centrifuged (2000 g for 10 minutes at 4° C.) to take the plasma, which was then stored in an ultra-low temperature freezer at −70° C. or below. A 50 μL plasma sample was mixed with 135 μL of acetonitrile (containing 0.5 μg/mL internal standard) and vortexed for protein precipitation. After centrifugation, the supernatant was taken for LC-MS/MS analysis.

recombinant CYP4F2 (rCYP4F2), sequence (P78329 5-520): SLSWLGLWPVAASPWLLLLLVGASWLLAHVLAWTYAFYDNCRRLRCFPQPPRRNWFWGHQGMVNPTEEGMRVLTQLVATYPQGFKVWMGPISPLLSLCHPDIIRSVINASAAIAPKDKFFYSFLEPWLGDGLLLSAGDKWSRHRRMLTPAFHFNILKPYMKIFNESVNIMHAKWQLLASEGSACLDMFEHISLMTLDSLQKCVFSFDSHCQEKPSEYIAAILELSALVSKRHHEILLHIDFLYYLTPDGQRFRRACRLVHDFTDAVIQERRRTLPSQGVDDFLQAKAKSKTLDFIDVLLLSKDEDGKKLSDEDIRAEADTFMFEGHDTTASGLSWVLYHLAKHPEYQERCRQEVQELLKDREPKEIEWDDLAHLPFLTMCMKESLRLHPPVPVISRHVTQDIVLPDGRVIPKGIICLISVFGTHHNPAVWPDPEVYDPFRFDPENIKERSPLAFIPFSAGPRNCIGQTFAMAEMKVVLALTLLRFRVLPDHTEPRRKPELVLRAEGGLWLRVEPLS
recombinant CYP4A11 (rCYP4A11), sequence (Q02928 5-519): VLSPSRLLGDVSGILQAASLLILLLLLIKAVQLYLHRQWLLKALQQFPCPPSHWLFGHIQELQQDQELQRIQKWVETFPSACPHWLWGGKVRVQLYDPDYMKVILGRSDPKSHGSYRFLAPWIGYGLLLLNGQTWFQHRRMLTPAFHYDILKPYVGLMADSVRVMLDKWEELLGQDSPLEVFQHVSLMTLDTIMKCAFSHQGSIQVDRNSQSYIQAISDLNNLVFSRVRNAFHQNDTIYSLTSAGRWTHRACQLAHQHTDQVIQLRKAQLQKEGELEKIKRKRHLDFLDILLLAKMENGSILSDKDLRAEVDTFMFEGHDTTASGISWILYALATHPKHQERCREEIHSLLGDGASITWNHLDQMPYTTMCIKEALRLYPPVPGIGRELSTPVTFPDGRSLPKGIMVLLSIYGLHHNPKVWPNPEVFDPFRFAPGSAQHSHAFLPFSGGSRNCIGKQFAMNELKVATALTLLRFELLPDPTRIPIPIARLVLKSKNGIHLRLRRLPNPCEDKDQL

As for `O=C1CCCN1CC1CCN(c2ccc(-c3cn[nH]c3)c(F)c2)CC1` [Compound 3, 1-((1-(3-fluoro-4-(1H-pyrazol-4-yl)phenyl)piperidin-4-yl)methyl)pyrrolidin-2-one], the “HLM (% inh @ 500 nM)” value in data set [1] was found to be 75.59%. For the same compound, the midpoint of inhibition in data set [2], the IC50, lay at 322 nM. Also, the inhibition at 0.1 µM in data set [3] is 64.2%; in data set [4], 27.8%.
On to `O=C1CCCN1CC1CCN(c2ccc(-c3cn[nH]c3)cc2Cl)CC1` [Compound 11, 1-((1-(2-chloro-4-(1H-pyrazol-4-yl)phenyl)piperidin-4-yl)methyl)pyrrolidin-2-one], for which the “HLM (% inh @ 500 nM)” value in data set [1] is 80.98%. In addition, the concentration for half-maximal inhibition (IC50) – broadly, the concentration that gives 50% inhibition – in data set [2] was 157 nM. Also, the inhibition at 0.1 µM in data set [3] stood at 59.7%; in data set [4], 46.3%.
For the compound `O=C1CCCN1CC1CCN(c2ccc(-c3cn[nH]c3)cc2C(F)F)CC1` [Compound 19, 1-((1-(2-(difluoromethyl)-4-(1H-pyrazol-4-yl)phenyl)piperidin-4-yl)methyl)pyrrolidin-2-one], the “HLM (% inh @ 500 nM)” value in data set [1] was found to be 87.01%. In data set [2], inhibition was half-maximal at 434 nM (IC50) and the “RLM (% inh @ 500 nM)” value is 59.42%. In addition, the inhibition at 0.1 µM in data set [3] is 61.4%. In data set [4], the inhibition at 0.1 µM is 58.7%.
With `O=C1CCCN1CC1CCN(c2ccc(-c3ccno3)cc2)CC1` [Compound 34, 1-((1-(4-(isoxazol-5-yl)phenyl)piperidin-4-yl)methyl)pyrrolidin-2-one], the “HLM (% inh @ 500 nM)” value in data set [1] worked out at 71.06%. In data set [2], the “RLM (% inh @ 500 nM)” value is 83.75%. Moreover, the results for the inhibition at 0.1 µM in data set [3] and in data set [4] were 49.7% and 1.59%, respectively.
As to `O=C(NCC1CCN(c2ccc(-c3cn[nH]c3)cc2)CC1)c1ccccc1` [Compound 47, N-((1-(4-(1H-pyrazol-4-yl)phenyl)piperidin-4-yl)methyl)benzamide], the midpoint of inhibition in data set [1], the IC50, lay at 42.7 nM. Also, the “RLM (% inh @ 500 nM)” value in data set [2] stood at 35.64%. Also, the results for the inhibition at 0.1 µM in data set [3] and in data set [4] were 66% and 41.1%, respectively.
With `O=C(C1CCN(c2ccc(-c3cn[nH]c3)cc2)CC1)N1CCCC1` [Compound 49, (1-(4-(1H-pyrazol-4-yl)phenyl)piperidin-4-yl)(pyrrolidin-1-yl) methanone], the “HLM (% inh @ 500 nM)” value in data set [1] turned out to be 79.80%. In data set [2], this compound showed a half-maximal inhibitory concentration (IC50) of 521 nM. In data set [2], the “RLM (% inh @ 500 nM)” value came to 44.31%. The inhibition at 0.1 µM in data set [3] was found to be 42.4%; in data set [4] it was 23.3%.
For the compound `O=C(NC1CCCCC1)C1CCN(c2ccc(-c3cn[nH]c3)cc2)CC1` [Compound 57, 1-(4-(1H-pyrazol-4-yl)phenyl)-N-cyclohexylpiperidine-4-carboxamide], in data set [1], the “HLM (% inh @ 500 nM)” value is reported as 81.76%. For the same compound, the “RLM (% inh @ 500 nM)” value in data set [2] came out at 49.97%. Besides, the figures for the inhibition at 0.1 µM in data set [3] and in data set [4] were 61.7% and 8.98%, respectively.
For the compound `O=C(N1CC=C(c2ccc(-c3cn[nH]c3)c(F)c2F)CC1)N1CCCC1` [Compound 91, (4-(2,3-difluoro-4-(1H-pyrazol-4-yl)phenyl)-3,6-dihydropyridin-1(2H)-yl)(pyrrolidin-1-yl) methanone], in data set [1], half-maximal inhibition (IC50) was put at 19.1 nM and the “HLM (% inh @ 500 nM)” value turned out to be 96.45%. The compound also came in with a half-maximal inhibitory concentration (IC50) in data set [2] of 9.09 nM. The compound further returned an IC50 in data set [5] of 735 nM. Moreover, in data set [6], the “absorption and blood exposure after oral administration (in words)” value is “well absorbed and exhibit high blood exposure”; the AUC(0-inf) (usually the area under the concentration-time curve extrapolated to infinity) was 107000 ng·h/mL; the peak level (Cmax) was 11400 ng/mL; the Tmax (in general, the time at which the peak concentration occurs) worked out at 2.5 h. Moreover, in data set [6], the half-life (usually how long it takes for the measured level to halve) is 2.22 h and the AUC(0-t) amounted to 107000 ng·h/mL.
Regarding `C[C@H]1CN(c2ccc(-c3cn[nH]c3)c(F)c2F)CCN1C(=O)N1CCCC1` [Compound 105, (S)-(4-(2,3-difluoro-4-(1H-pyrazol-4-yl)phenyl)-2-methylpiperazin-1-yl)(pyrrolidin-1-yl) methanone], the values for the half-maximal inhibitory concentration (IC50) in data set [1], in data set [2] and in data set [5] were 11.1 nM, 9.78 nM and 1520 nM, respectively. The “HLM (% inh @ 500 nM)” value in data set [1] was 79.54%.
Turning to `O=C(N1CCC(c2ccc(-c3cn[nH]c3)cc2F)CC1)N1CC2CCCC2C1` (centres unmarked) [Compound 106, (4-(2-fluoro-4-(1H-pyrazol-4-yl)phenyl)piperidin-1-yl)(hexahydrocyclopenta[c]pyrrol-2 (1H)-yl) methanone], in data set [1], half-maximal inhibition (IC50) required 23.2 nM and the “HLM (% inh @ 500 nM)” value came to 91.17%. Moreover, in data set [2], the half-maximal inhibitory concentration (IC50) came out at 10.7 nM and the “RLM (% inh @ 500 nM)” value was 84.57%. In data set [5], this compound returned a half-maximal inhibitory concentration (IC50) of 2810 nM.
`O=C1CCC(C(=O)N2CCC(c3ccc(-c4cn[nH]c4)c(F)c3F)CC2)CC1` [Compound 107, 4-(4-(2,3-difluoro-4-(1H-pyrazol-4-yl)phenyl)piperidine-1-carbonyl)cyclohexane-1-one]: the IC50 in data set [1] was found to be 23.6 nM; in data set [2], 33.4 nM; in data set [5], 720 nM. In data set [2], the “RLM (% inh @ 500 nM)” value was 69.55%.
`O=C(N1CCC(c2ccc(-c3cn[nH]c3)c(F)c2F)CC1)C1(O)CCCCC1` [Compound 110, (4-(2,3-difluoro-4-(1H-pyrazol-4-yl)phenyl)piperidin-1-yl)(1-hydroxycyclohexyl) methanone]: in data set [1], the half-maximal inhibitory concentration (IC50) was found to be 16.1 nM and the “HLM (% inh @ 500 nM)” value is 92.92%. In addition, in data set [2], half-maximal inhibition (IC50) was put at 29.5 nM and the “RLM (% inh @ 500 nM)” value stood at 77.32%. The IC50 in data set [5] came out at 174 nM.
Regarding `O=C(C1CCCC1)N1CCC2(CCN(c3ccc(-c4cn[nH]c4)cc3F)C2)C1` (centres unmarked) [Compound 124, cyclopentyl(7-(2-fluoro-4-(1H-pyrazol-4-yl)phenyl)-2,7-diazaspiro[4.4]nonan-2-yl) methanone], in data set [1], it took 32.8 nM to reach half-maximal inhibition (IC50) and the “HLM (% inh @ 500 nM)” value is listed as 88.29%. Moreover, the “RLM (% inh @ 500 nM)” value in data set [2] stood at 74.61%. The compound also came in with an IC50 in data set [5] of 1850 nM.
Turning to `O=C(N1CCCC1)N1CC2CN(c3ccc(-c4cn[nH]c4)c(F)c3F)CC2C1` (centres unmarked) [Compound 127, (5-(2,3-difluoro-4-(1H-pyrazol-4-yl)phenyl)hexahydropyrrolo[3,4-c]pyrrol-2 (1H)-yl)(pyrrolidin-1-yl) methanone], the results for the IC50 in data set [1], in data set [2] and in data set [5] were 18.3 nM, 17.9 nM and 1900 nM, respectively. For the same compound, in data set [2], the “RLM (% inh @ 500 nM)” value came out at 74.10%.
`CC1CN(c2ccc(-c3cn[nH]c3)cc2F)CC(C)N1C(=O)N1CCCC1` (centres unmarked) [Compound 130, (4-(2-fluoro-4-(1H-pyrazol-4-yl)phenyl)-2,6-dimethylpiperazin-1-yl)(pyrrolidin-1-yl) methanone]: the half-inhibitory concentration (IC50) in data set [1] came to 7.62 nM; in data set [2], 22.8 nM; in data set [5] it was 414 nM.
As for `O=S1(=O)CCCCN1CC1CCN(c2ccc(-c3cn[nH]c3)cc2F)CC1` [Compound 163, 2-((1-(2-fluoro-4-(1H-pyrazol-4-yl)phenyl)piperidin-4-yl)methyl)-1,2-thiazinane 1,1-dioxide], in data set [1], the IC50 was determined as 9.53 nM and the “HLM (% inh @ 500 nM)” value turned out to be 90.91%. In addition, in data set [2], the 50% inhibitory concentration (IC50) was 222 nM and the “RLM (% inh @ 500 nM)” value was found to be 64.17%. In addition, in data set [5], the IC50 worked out at 1010 nM. Also, in data set [6], the “absorption and blood exposure after oral administration (in words)” value is “well absorbed and exhibit high blood exposure”; the AUC(0-inf) is 44700 ng·h/mL; the highest level (Cmax) was 6680 ng/mL; the time of peak concentration (Tmax) was 1.67 h. In data set [6], the half-life is 4.03 h and the AUC(0-t) turned out to be 44100 ng·h/mL.
